Data from ChEMBL document CHEMBL3588788, “Structure-activity relationship of hybrids of Cinchona alkaloids and bile acids with in vitro antiplasmodial and antitrypanosomal activities” (Eur J Med Chem, 2015).

Key:
[1] = Cytotoxicity against human WI38 cells by MTT assay; format: cell-based, WI-38; conditions: Homo sapiens, WI-38; read-out: IC50
[2] = tested on: Trypanosoma brucei brucei; assay: Antitrypanosomal activity against Trypanosoma brucei brucei Lister 427 bloodstream forms by microtiter plate based assay; format: functional, organism-based
[3] = tested on: Trypanosoma brucei brucei; assay: Potency index, ratio of IC50 for QND to IC50 for test compound against Trypanosoma brucei brucei Lister 427 bloodstream forms by microtiter plate based assay; format: functional
[4] = tested on: Plasmodium falciparum; assay: Antiplasmodial activity against Plasmodium falciparum 3D7 assessed as reduction in parasite viability by parasite lactate dehydrogenase assay; format: functional, organism-based
[5] = Selectivity index, ratio of IC50 against human WI38 cells to IC50 for Plasmodium falciparum 3D7; format: toxicity, cell-based, WI-38; conditions: read-out: Ratio IC50
[6] = tested on: Plasmodium falciparum; assay: Potency index, ratio of IC50 for QND to IC50 for test compound against Plasmodium falciparum 3D7 by parasite lactate dehydrogenase assay; format: functional
[7] = in vitro; conditions: human, WI38 cells
Description: Selectivity index, ratio of IC50 against human WI38 cells to IC50 for Trypanosoma brucei brucei Lister 427 bloodstream forms

[8] = tested on: Trypanosoma brucei brucei; assay: Potency index, ratio of IC50 for CN to IC50 for test compound against Trypanosoma brucei brucei Lister 427 bloodstream forms by microtiter plate based assay; format: functional
[9] = tested on: Plasmodium falciparum; assay: Potency index, ratio of IC50 for CN to IC50 for test compound against Plasmodium falciparum 3D7 by parasite lactate dehydrogenase assay; format: functional

Compound | IC50 [2] | IC50 [1] | Ratio IC50 [3] | IC50 [4] | selectivity ratio [5] | Ratio IC50 [6] | selectivity ratio [7] | Ratio IC50 [8] | Ratio IC50 [9]
C=C[C@H]1CN2CC[C@H]1C[C@@H]2[C@@H](O)c1cc(CC[C@@H](C)[C@H]2CC[C@H]3[C@@H]4C[C@H](OC(C)=O)[C@@H]5C[C@H](OC(C)=O)CC[C@]5(C)[C@H]4CC[C@]23C)nc2ccc(OC)cc12 | 1470 nM | 4490 nM | 17.7 | 155 nM | 29 | 1.3 | 3.1 |  | 
C=C[C@H]1CN2CC[C@H]1C[C@@H]2[C@@H](O)c1cc(CC[C@@H](C)[C@H]2CC[C@H]3[C@@H]4[C@H](OC(C)=O)[C@H](OC(C)=O)[C@@H]5C[C@H](OC(C)=O)CC[C@]5(C)[C@H]4CC[C@]23C)nc2ccc(OC)cc12 | 560 nM | 3290 nM | 46.2 | 73.2 nM | 45 | 2.7 | 5.8 |  | 
C=C[C@H]1CN2CC[C@H]1C[C@@H]2[C@@H](O)c1cc(CC[C@@H](C)[C@H]2CC[C@H]3[C@@H]4[C@H](OC(C)=O)C[C@@H]5C[C@H](OC(C)=O)CC[C@]5(C)[C@H]4C[C@H](OC(C)=O)[C@]23C)nc2ccccc12 | 550 nM | 5100 nM |  | 52.8 nM | 97 |  | 9.3 | 123.6 | 5.5
C=C[C@H]1CN2CC[C@H]1C[C@@H]2[C@@H](O)c1cc(CC[C@@H](C)[C@H]2CC[C@H]3[C@@H]4CC[C@@H]5C[C@H](O)CC[C@]5(C)[C@H]4C[C@H](O)[C@]23C)nc2ccccc12 | 600 nM | 2980 nM |  | 134 nM | 22 |  | 5 | 113.1 | 2.2
C=C[C@H]1CN2CC[C@H]1C[C@@H]2[C@@H](O)c1cc(CC[C@@H](C)[C@H]2CC[C@H]3[C@@H]4[C@H](O)C[C@@H]5C[C@H](O)CC[C@]5(C)[C@H]4C[C@H](O)[C@]23C)nc2ccccc12 | 1100 nM | 5680 nM |  | 592 nM | 10 |  | 5.2 | 61.8 | 0.5

Further compounds by falling IC50 [2], results first:

IC50 [2] | Compound | IC50 [1] | Ratio IC50 [3] | IC50 [4] | selectivity ratio [5] | Ratio IC50 [6] | selectivity ratio [7] | Ratio IC50 [8] | Ratio IC50 [9]
1810 nM | C=C[C@H]1CN2CC[C@H]1C[C@@H]2[C@@H](O)c1cc(CC[C@@H](C)[C@H]2CC[C@H]3[C@@H]4[C@H](O)[C@H](O)[C@@H]5C[C@H](O)CC[C@]5(C)[C@H]4CC[C@]23C)nc2ccccc12 | 5680 nM |  | 183 nM | 31 |  | 3.1 | 37.6 | 1.6
1510 nM | C=C[C@H]1CN2CC[C@H]1C[C@@H]2[C@@H](O)c1cc(CC[C@@H](C)[C@H]2CC[C@H]3[C@@H]4CC[C@@H]5C[C@H](OC(C)=O)CC[C@]5(C)[C@H]4C[C@H](OC(C)=O)[C@]23C)nc2ccccc12 | 4800 nM |  | 171 nM | 28.1 |  | 3.2 | 45.1 | 1.7
720 nM | C=C[C@H]1CN2CC[C@H]1C[C@@H]2[C@@H](O)c1cc(CC[C@@H](C)[C@H]2CC[C@H]3[C@@H]4C[C@H](O)[C@@H]5C[C@H](O)CC[C@]5(C)[C@H]4CC[C@]23C)nc2ccccc12 | 5490 nM |  | 71.6 nM | 77 |  | 7.6 | 94.5 | 4.1
